Laboratory results reported in PMC7497086, “Fluorophore‐Labeled Cyclic Nucleotides as Potent Agonists of Cyclic Nucleotide‐Regulated Ion Channels” (Chembiochem, 2020).

Tests used:
Type in all cases: biochemical
[1] = biological target: T1, homotetrameric olfactory CNG channels (Rattus norvegicus, UniProt Q00195); assay: Confocal patch-clamp fluorometry (cPCF): ligand binding and activation, homotetrameric CNG channels; details: Figure 4B
T1 construct: expressed in transfected cells; host or cells: Xenopus laevis oocytes injected with CNGA2 cRNA
T1 sequence (Q00195 1-664): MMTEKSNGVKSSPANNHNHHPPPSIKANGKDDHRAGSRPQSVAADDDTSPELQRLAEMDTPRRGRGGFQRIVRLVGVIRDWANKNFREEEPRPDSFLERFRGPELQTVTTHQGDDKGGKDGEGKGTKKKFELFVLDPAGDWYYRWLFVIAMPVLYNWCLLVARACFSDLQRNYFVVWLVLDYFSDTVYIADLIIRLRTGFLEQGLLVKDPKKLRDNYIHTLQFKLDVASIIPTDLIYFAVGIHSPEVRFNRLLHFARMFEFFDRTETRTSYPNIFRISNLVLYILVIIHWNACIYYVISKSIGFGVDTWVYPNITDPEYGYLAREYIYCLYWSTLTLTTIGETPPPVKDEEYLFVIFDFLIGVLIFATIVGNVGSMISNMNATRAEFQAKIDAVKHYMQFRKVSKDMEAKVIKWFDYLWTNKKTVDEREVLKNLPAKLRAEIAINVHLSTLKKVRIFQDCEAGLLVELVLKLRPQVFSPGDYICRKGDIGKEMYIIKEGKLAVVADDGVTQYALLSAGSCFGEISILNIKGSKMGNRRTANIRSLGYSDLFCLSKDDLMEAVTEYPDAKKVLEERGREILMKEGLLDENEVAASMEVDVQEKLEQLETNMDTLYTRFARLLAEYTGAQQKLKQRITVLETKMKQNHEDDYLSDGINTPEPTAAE
Source text: (§1) As expected from the above data, the binding profile of 10 was similar for the two different types of ion channels, yielding similar BC 50 and H b values.
(§2) Confocal patch‐clamp fluorometry: Ionic current and binding of the fluorescent ligand in macropatches were simultaneously measured by cPCF as described before.2a, 2b The patch pipettes were pulled from borosilicate glass tubing with an outer and inner diameter of 2.0 and 1.0 mm (Hilgenberg GmbH, Malsfeld, Germany). After fire polishing, the corresponding pipette resistance was 0.7–1.2 MΩ. The bath and pipette solution contained (in mM): 150 KCl, 1 EGTA, 5 HEPES (pH 7.4) for CNG channel measurements. To distinguish the fluorescence of the unbound fluorescent ligand from that of the bound fluorescent ligands, the fluorescent dye DY647 was added to the bath solution at a concentration of 5 μM. The fluorescent ligand and DY647 were excited at 543 and 633 nm, respectively, with a HeNe laser system and an AchroGate beam splitter. Fluorescence intensity from the bath and pipette solution were normalized on each other and the surplus of the green fluorescence of the patch dome with respect to the red fluorescence was used to quantify the bound ligands. The actual relative fluorescence (F) was normalized in each patch with respect to the maximum relative fluorescence (F max) at a saturating concentration of the fluorescent ligand. […]

[2] = biological target: T2, heterotetrameric olfactory CNG channels (Rattus norvegicus, UniProt A0A8I5ZN27+Q00195+Q64359); assay: Confocal patch-clamp fluorometry (cPCF): ligand binding and activation, heterotetrameric CNG channels; details: Figure 4A
T2 construct: expressed in transfected cells; host or cells: Xenopus laevis oocytes injected with cRNA (CNGA2:CNGA4:CNGB1b at 2:1:1)
Source text: as §1, §2

[3] = biological target: T3, Homotetrameric CNGA2 channels (Rattus norvegicus, UniProt Q00195); assay: Patch-clamp activation of homotetrameric CNGA2 channels, inside-out patches of Xenopus oocytes
T3 construct: expressed in transfected cells; host or cells: Xenopus laevis oocytes injected with CNGA2 cRNA
T3 sequence (Q00195 1-664): T1 sequence (Q00195 1-664)
Source text: Moreover, we studied the effect of the nucleotide derivatives on homotetrameric CNGA2 channels.
(§3) Molecular biology and heterologous expression of CNG and HCN channels: The subunits CNGA2 (accession No. AF126808), CNGA4 (accession no. U12623) and CNGB1b (accession no. AF068572) of rat olfactory channels as well as mouse HCN2 channels (NM008226) were subcloned in front of the T7 promoter of pGEMHEnew. The corresponding cRNAs were produced with the mMESSAGE mMACHINE T7 Kit (Ambion, Austin, TX, USA).
(§4) Oocytes at stages IV and V were injected with 50–130 ng cRNA encoding either CNGA2, CNGA2 : CNGA4 : CNGB1b (2 : 1 : 1 ratio) or HCN2 channels either manually or mediated by an injection robot (RoboInject®). The injected oocytes were incubated at 18 °C for up to 6 days in Barth's medium containing (in mM) 84 NaCl, 1 KCl, 2.4 NaHCO3, 0.82 MgSO4, 0.41 CaCl2, 0.33 Ca(NO3)2, 7.5 TRIS, cefuroxime (4.0 μg/mL) and penicillin/streptomycin (100 μg/mL), pH 7.4.
(§5) Electrophysiology: Macroscopic currents were recorded in inside‐out patches of the oocytes expressing hundreds to several thousand of the desired channels by using the patch‐clamp technique. The patch pipettes were pulled from quartz tubing (P‐2000, Sutter Instrument, Novato, USA) with an outer and inner diameter of 1.0 and 0.7 mm (VITROCOM, New Jersey, USA). The corresponding pipette resistance was 0.9–2.3 MΩ. The bath and pipette solution contained (in mM): 150 KCl, 1 EGTA, 20 HEPES (pH 7.4) for CNG channel measurements. For HCN channel measurements the bath solution contained (in mM): 100 KCl, 10 EGTA, 10 HEPES (pH 7.2) and the pipette (in mM) 120 KCl, 10 HEPES, 1 CaCl2 (pH 7.2). All experiments were performed at room temperature by using an Axopatch 200B amplifier (Axon Instruments, Foster City, CA, USA). Electrophysiology was controlled by the Patchmaster‐software (HEKA Elektronik Dr. Schulze GmbH, Lambrecht, Germany). The sampling rate was 5 kHz and the filter implemented in the amplifier (4‐pole Bessel) was set to 2 kHz. Measurements in HCN2 channels were started 3.5 minutes after patch excision, to minimize run down phenomena.18 The solutions with the different ligand concentrations to be studied were applied by a multi‐barrel device to the patches with a flow rate of 0.8 to 1.2 mL/min. The concentration of the fluorescent ligands was verified by UV/Vis spectroscopy.
(§6) where I is the actual current amplitude and I max the maximum current amplitude at saturating concentration of each cyclic nucleotide. EC 50 is the ligand concentration generating half maximum current and H a the respective Hill coefficient.

[4] = biological target: T4, Heterotetrameric CNGA2:A4:B1b channels (Rattus norvegicus, UniProt A0A8I5ZN27+Q00195+Q64359); assay: Patch-clamp activation of heterotetrameric olfactory CNGA2:A4:B1b channels, inside-out patches of Xenopus oocytes; details: inside-out patches, +10 mV
T4 construct: expressed in transfected cells; host or cells: Xenopus laevis oocytes injected with cRNA (CNGA2:CNGA4:CNGB1b at 2:1:1)
Protocol: First, the effect of the compounds on olfactory CNG channels with natural composition was tested. […] To determine the potency of the ligands, full concentration‐activation relationships were generated. These relationships were fitted with Equation 1 (Experimental Section), yielding the concentration of half maximum activation (EC 50) and the Hill coefficient (H a).
as §3, §4, §5, §6

[5] = unit only in the axis title [10] (μM)

T2 sequence (Q64359 whole entry, one chain of several): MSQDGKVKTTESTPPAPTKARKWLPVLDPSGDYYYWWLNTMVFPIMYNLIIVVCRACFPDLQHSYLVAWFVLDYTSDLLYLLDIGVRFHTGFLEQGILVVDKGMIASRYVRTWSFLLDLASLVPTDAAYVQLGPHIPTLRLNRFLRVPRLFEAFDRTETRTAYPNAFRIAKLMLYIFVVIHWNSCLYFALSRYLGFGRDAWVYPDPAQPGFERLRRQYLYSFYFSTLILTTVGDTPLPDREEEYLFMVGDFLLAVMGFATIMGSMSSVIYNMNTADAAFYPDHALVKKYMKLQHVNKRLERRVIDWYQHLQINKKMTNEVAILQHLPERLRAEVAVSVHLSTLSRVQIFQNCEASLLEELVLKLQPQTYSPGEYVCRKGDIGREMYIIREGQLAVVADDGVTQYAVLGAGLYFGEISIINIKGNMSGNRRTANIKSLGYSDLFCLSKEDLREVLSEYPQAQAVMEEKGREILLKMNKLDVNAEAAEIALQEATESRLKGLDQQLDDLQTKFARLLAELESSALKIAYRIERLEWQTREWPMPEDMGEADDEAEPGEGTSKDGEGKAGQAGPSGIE
T2 sequence (A0A8I5ZN27 1-858 isoform A0A8I5ZN27-2, one chain of several): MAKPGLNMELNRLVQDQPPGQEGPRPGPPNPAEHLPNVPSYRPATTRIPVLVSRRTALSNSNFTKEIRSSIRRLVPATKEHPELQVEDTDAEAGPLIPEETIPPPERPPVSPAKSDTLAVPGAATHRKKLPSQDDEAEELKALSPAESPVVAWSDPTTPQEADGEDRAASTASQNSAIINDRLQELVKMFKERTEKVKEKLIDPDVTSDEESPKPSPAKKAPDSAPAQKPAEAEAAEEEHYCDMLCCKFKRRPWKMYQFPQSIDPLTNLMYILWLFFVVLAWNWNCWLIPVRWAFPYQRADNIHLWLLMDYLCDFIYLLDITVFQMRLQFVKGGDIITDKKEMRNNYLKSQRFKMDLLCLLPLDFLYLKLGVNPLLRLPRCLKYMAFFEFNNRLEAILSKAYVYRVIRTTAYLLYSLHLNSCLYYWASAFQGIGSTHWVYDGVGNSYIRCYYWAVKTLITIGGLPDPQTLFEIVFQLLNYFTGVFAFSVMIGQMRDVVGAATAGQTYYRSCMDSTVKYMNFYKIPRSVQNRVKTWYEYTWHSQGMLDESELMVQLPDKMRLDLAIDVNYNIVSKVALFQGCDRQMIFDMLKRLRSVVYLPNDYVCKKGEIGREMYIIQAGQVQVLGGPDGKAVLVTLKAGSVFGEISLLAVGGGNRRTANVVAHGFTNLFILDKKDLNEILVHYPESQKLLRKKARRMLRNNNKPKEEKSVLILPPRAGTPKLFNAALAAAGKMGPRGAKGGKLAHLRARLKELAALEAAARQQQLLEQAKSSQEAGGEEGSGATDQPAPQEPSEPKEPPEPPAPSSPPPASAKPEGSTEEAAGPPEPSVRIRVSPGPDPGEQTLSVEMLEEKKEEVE
T4 sequence (Q64359 whole entry, one chain of several): as the sequence (Q64359 whole entry, one chain of several) above
T4 sequence (A0A8I5ZN27 1-858 isoform A0A8I5ZN27-2, one chain of several): as the sequence (A0A8I5ZN27 1-858 isoform A0A8I5ZN27-2, one chain of several) above

Compound: CC1(C)C2=C3C=C4C5=[N+](CCC4OC3CCN2c2ccc(CC(=O)NCCCCCc3ccc(Sc4nc6c(=O)[nH]c(N)nc6n4[C@@H]4O[C@@H]6COP(=O)(O)O[C@H]6[C@H]4O)cc3)cc21)c1ccc(S(=O)(=O)[O-])cc1C5(C)C (stereo partly drawn) [Compound 10]
- Hb (Hill coefficient of binding, cPCF) [1]: 1.43
- EC50 [1, 5]: 1.17 ± 0.07 µM
- Hb (Hill coefficient of binding, cPCF) [2]: 1.55
- EC50 [2, 5]: 1.03 ± 0.04 µM
- EC 50 (in words) [3]: nanomolar range
- H a (Hill coefficient of activation) ([3]; inside-out patches): 4.03±0.12
- EC50 ([3]; inside-out patches, concentration of half maximum activation): 650 ± 10 nM
- H a (Hill coefficient of activation) [4]: 2.32±0.16
- EC50 ([4]; concentration of half maximum activation): 630 ± 20 nM
